# BindingDB's records for doi:10.1016/j.ejmech.2014.06.016 (Ocean University of China, 2014)
# Experiment: Inhibition of p-glycoprotein in human MDA435/LCC6MDR cells assessed as concentration required to reduce taxol IC50 by half after 5 days by MTS assay
row,EC50,Structure (SMILES)
1,211 nM,CCN(CC)c1ccc(Cc2c(Cc3ccc(OC)c(OC)c3)nc(N(C(=O)/C=C/c3cc(OC)c(OC)c(OC)c3)C(=O)/C=C/c3cc(OC)c(OC)c(OC)c3)n2C)cc1
2,213 nM,CCN(CC)c1ccc(Cc2c(Cc3ccc(OC)c(OC)c3)nc(NC(=O)c3cc(OC)c(OC)c(OC)c3)n2C)cc1
